# Experimental data taken from patent US20230165970A1, “COMPOSITIONS AND METHODS FOR THE TREATMENT OF BACTERIAL INFECTIONS” (priority 2017, published 2023).
# Read-outs that look alike come from different tables or passages of the source. Where a SMILES comes first, the peptide text is derived from it. Bridges are numbered along the chain shown (N, C = ends). [ ]: non-standard residue; d: D form. The star is where a group is joined. Propargyl(OCH2CH2)4CO = C#CCOCCOCCOCCOCCC(=O)*; Aoc(2) = CCCCCC[C@H](N)C(=O)O; Dab = NCC[C@H](N)C(=O)O
# Columns and labels:
# E. coli 25922 = conditions: 0.3 mg/kg IP qd at T+1 hour; 72 hours after bacterial challenge; N=3
# Description: In vivo screening of selected compounds was accomplished in an E. coli bacteremia model (N=3). Efficacy was assessed in an animal model of infection using CD-1 mice by evaluating bacteremia in immune competent mice challenged with 2× the LD95 of E. coli 25922 (dosed qd, intraperitoneally (IP) at T+1 hour, survival endpoint).
# Colistin (COL) and Int-17 were dosed at 0.3 mg/kg and Int-41 was dosed at 3.0 mg/kg. Percent survival was determined 72 hours after bacterial challenge. Compounds with MICs against E. coli 25922 of less than 4 μg/ml were evaluated in the bacteremia model.
# Int-115 and Int-118 were evaluated for potency in a lethal model of bacteremia. […] Test articles were dissolved in 1× PBS and injected IV at a dose volume of 10 ml/kg one hour following bacterial challenge. Animals were monitored twice daily and mortality scored over three days.
# CD-1 mice were used for bacteremia, C57BL/6J mice for endotoxemia. The endpoint was survival after three days for both models.
# Kp 6951 (COL^R) = assay type: cell-based, Klebsiella pneumoniae
# Description: (§1) Briefly, stock solutions of all antibacterial agents were prepared fresh in appropriate solvents (i.e. PBS, pH 7.4, DMSO, DI, etc.). Stock concentrations for drug conjugates were made at 12.5× the highest final assay concentration. All were serially diluted 2-fold, 8 or 12 times in a 96-well PCR plate (VWR cat. no. 83007-374). Bacterial cell suspensions generated from Mueller-Hinton agar (MHA) plate cultures were prepared in 0.85% saline and adjusted to ˜0.1 OD600 nm. […] For the conjugates, 92 μL of each cell suspension in RPMI B were added in the same 96-well plate assay format. […] Compounds were tested against a 14-strain panel comprised of E. coli (Ec), A. baumannii (Ab), P. aeruginosa (Pa), and K. pneumoniae (Kp) that were obtained from ATCC (Ec 25922, Ec 2489, Ab 19606, Pa 27853, Pa PAO1, Kp 43816, Kp 10031), Centers for Disease Control and Prevention (Ec AR0349), BEI Resources (Ab AB5075), Micromyx LLC (Ab 8990, Kp 6951), and Belgian Coordinated Collections of Microorganisms (Pa LES431) or generated in-house (Ec 25922 64X-1). […] E. coli strain ATCC 25922 and P. aeruginosa strain LES431 were run in the presence and absence of 50% heat-inactivated fetal bovine serum (FBS; Sigma, cat. no. F4135-100 mL). Plates were mixed by shaking then incubated at 35° C. overnight (16-20 h).
# Kp 10031 = assay type: cell-based, Klebsiella pneumoniae
# Description: as §1
# Kp 43816 = assay type: cell-based, Klebsiella pneumoniae
# Description: as §1
# Ab 19606 (COLhet^R) = assay type: cell-based, Acinetobacter baumannii; conditions: media CA-MHB
# Description: (§2) Briefly, stock solutions of all antibacterial agents were prepared fresh in appropriate solvents (i.e. PBS, pH 7.4, DMSO, DI, etc.). Stock concentrations for drug conjugates were made at 12.5× the highest final assay concentration. All were serially diluted 2-fold, 8 or 12 times in a 96-well PCR plate (VWR cat. no. 83007-374). Bacterial cell suspensions generated from Mueller-Hinton agar (MHA) plate cultures were prepared in 0.85% saline and adjusted to ˜0.1 OD600 nm. Next, cell suspensions were diluted 1:200 in RPMI containing 5% Luria Broth (LB) to improve bacterial growth (BD Difco, cat. no. 244620) to a concentration of ˜5×10^5 CFU (colony-forming units)/mL. Due to poor solubility in Mueller-Hinton broth media, drug conjugates were evaluated in RPMI 1640 medium (+) L-glutamine, (+) sodium bicarbonate, pH 7.4 (“RPMI B”; Gibco, cat. no. 11875-085) as has been described as a more physiologically-relevant media for susceptibility testing of antibacterial compounds (1). For the conjugates, 92 μL of each cell suspension in RPMI B were added in the same 96-well plate assay format. […] Compounds were tested against a 14-strain panel comprised of E. coli (Ec), A. baumannii (Ab), P. aeruginosa (Pa), and K. pneumoniae (Kp) that were obtained from ATCC (Ec 25922, Ec 2489, Ab 19606, Pa 27853, Pa PAO1, Kp 43816, Kp 10031), Centers for Disease Control and Prevention (Ec AR0349), BEI Resources (Ab AB5075), Micromyx LLC (Ab 8990, Kp 6951), and Belgian Coordinated Collections of Microorganisms (Pa LES431) or generated in-house (Ec 25922 64X-1). […] E. coli strain ATCC 25922 and P. aeruginosa strain LES431 were run in the presence and absence of 50% heat-inactivated fetal bovine serum (FBS; Sigma, cat. no. F4135-100 mL). Plates were mixed by shaking then incubated at 35° C. overnight (16-20 h).
# Ec 25922 = assay type: cell-based, Escherichia coli
# Description: as §1
# Ec 2469 = assay type: cell-based, Escherichia coli
# Description: as §1
# Ab AB5075 = assay type: cell-based, Acinetobacter baumannii
# Description: as §1
# Pa PAO1 = assay type: cell-based, Pseudomonas aeruginosa; conditions: for MIC: PAO1
# Description: as §1
# Pa LES431 = assay type: cell-based, Pseudomonas aeruginosa
# Description: as §1
# Pa 27853 = assay type: cell-based, Pseudomonas aeruginosa
# Description: as §1
# Ec AR0349 (mcr-1, COL^R) = assay type: cell-based, Escherichia coli; conditions: media CA-MHB
# Description: as §2
# Ec 25922 64X-1 (COL^R) = assay type: cell-based, Escherichia coli; conditions: media CA-MHB
# Description: as §2
# A. baumannii AB5075 = assay type: cell-based
# Description: (§3) Overnight stationary-phase cultures were centrifuged at 3,500×g for 10 min at room temperature and resuspended in 1×PBS to an optical density at 600 nm (OD600) of 0.4 (1×10^8 colony forming units [CFU]/ml) in RPMI with L-glutamine and phenol red (Life Technologies). Bacteria were diluted 1:25 in RPMI ([…]) and 10 ul added to wells of a non-binding 96-well plate (Corning 3641) containing 80 ul of 50% hirudin anti-coagulated blood (complement active) in RPMI. […] MBC was defined as the minimum conjugate concentration required for bacterial clearance (Table 8A and Table 8B). An untreated growth control (40% blood, 0 ug/ml conjugate) was included in all assays as a growth comparator.
# (§4) MBC was defined as the minimum compound concentration required for complete bacterial clearance (Table 18).
# (§5) In most cases, 2-4 fold improvements in antibacterial activity for the conjugates are observed in the presence of complement active human blood.
# P. aeruginosa PAO1 = assay type: cell-based
# Description: as §3, §4, §5
# E. coli ATCC 25922 = assay type: cell-based
# Description: as §3, §4, §5
# Sa RN = assay type: cell-based
# Ab 8990 (COL^R) = assay type: cell-based, Acinetobacter baumannii; conditions: Ab 8990 (COL^R); media CA-MHB
# Description: as §1
# [1] = test system: Ab AB58705 (COL^R) IpxD, mut. (no LPS); assay type: cell-based, Acinetobacter baumannii; conditions: media CA-MHB
Compound,MIC (Kp 10031) [µg/mL],MIC (Kp 43816) [µg/mL],MIC (Ab 19606 (COLhet^R)) [µg/mL],MIC (Ec 25922) [µg/mL],MIC (Ec 2469) [µg/mL],MIC (Ab AB5075) [µg/mL],MIC (Pa PAO1) [µg/mL],MIC (Pa LES431) [µg/mL],MIC (Pa 27853) [µg/mL],"MIC (Ec AR0349 (mcr-1, COL^R)) [µg/mL]",MIC (Ec 25922 64X-1 (COL^R)) [µg/mL],further results
C#CCOCCOCCOCCOCCC(=O)N[C@@H](CCCCCC)C(=O)N[C@@H](CCN)C(=O)N[C@H](C(=O)N[C@@H](CCN)C(=O)N[C@H]1CCNC(=O)[C@H]([C@@H](C)O)NC(=O)[C@H](CCN)NC(=O)[C@H](CCN)NC(=O)[C@H](CC(C)C)NC(=O)[C@@H](Cc2ccccc2)NC(=O)[C@H](CCN)NC1=O)[C@@H](C)O [Int-17] ({Propargyl(OCH2CH2)4CO}-[Aoc(2)][Dab]T[Dab][Dab][Dab][dF]L[Dab][Dab]T; lactam 5-C),1,1,1,2,1,1,4,1,2,16,64,"% Survival (IP, QD) (E. coli 25922): 100%; MIC (Kp 6951 (COL^R)): >128 µg/mL; MIC E. coli ATCC 25922, No serum (Ec 25922): 2 µg/mL; MIC E. coli ATCC 25922, Serum (Ec 25922): 0.5 µg/mL"
C#CCOCCOCCOCCOCCC(=O)Nc1nc(C)c(C(=O)N[C@@H](CCCC)C(=O)C[C@@H](CCN)C(=O)N[C@H](C(=O)NC(CCCN)C(=O)N[C@H]2CCNC(=O)[C@H]([C@@H](C)O)NC(=O)[C@H](CCN)NC(=O)[C@H](CCN)NC(=O)[C@H](CC(C)C)CC(=O)[C@@H](Cc3ccccc3)NC(=O)[C@H](CCN)CC2=O)[C@@H](C)O)s1 (stereo partly drawn) [Int-125],1,1,4,1,1,2,2,1,2,16,64,"MBC in blood AB 5075 (A. baumannii AB5075): 0.1 µg/mL; MBC in blood PA 01 (P. aeruginosa PAO1): 0.2 µg/mL; MBC in blood EC 25922 (E. coli ATCC 25922): 0.05 µg/mL; MIC (Sa RN): >128 µg/mL; MIC (Kp 6951 (COL^R); Kp 6951 (COL^R), media CA-MHB): >128 µg/mL; MIC in RPMI EC 25922 (Ec 25922; pH 7.4): 0.94 µg/mL; MIC (Ab 8990 (COL^R)): >128 µg/mL; MIC in RPMI AB 5075 (Ab AB5075; pH 7.4): 1.88 µg/mL; MIC in RPMI PA 01 (Pa PAO1; PAO1, pH 7.4): 3.76 µg/mL; MIC [1]: 32 µg/mL"
